Source: ChEMBL document CHEMBL5230110, “FabI (enoyl acyl carrier protein reductase) - A potential broad spectrum therapeutic target and its inhibitors” (Eur J Med Chem, 2020)
≈ marks a conversion by molar mass, not a printed value.

Columns and labels:
[1] = tested on: Staphylococcus aureus; experiment: Antibacterial activity against methicillin-resistant Staphylococcus aureus ATCC 4330 assessed as reduction in bacterial growth; format: functional
[2] = tested on: Staphylococcus aureus; experiment: Antibacterial activity against Methicillin-sensitive Staphylococcus aureus ATCC 4330 assessed as reduction in bacterial growth; format: functional
[3] = Inhibition of Plasmodium falciparum NF54 HDAC using extract measured after 60 mins by fluorescence assay
[4] = Inhibition of Pseudomonas fluorescens FabI assessed as inhibition
[5] = Inhibition of Pseudomonas fluorescens FabG assessed as inhibition
[6] = tested on: Mycobacterium tuberculosis; experiment: Antimycobacterial activity against Mycobacterium tuberculosis H37Rv assessed as reduction in bacterial growth incubated for 7 days by dye based assay; format: functional; settings: 168 h, time 7 day
[7] = tested on: Staphylococcus aureus; experiment: Antibacterial activity against Staphylococcus aureus assessed as bacterial growth inhibition; format: functional
[8] = tested on: Escherichia coli; experiment: Antibacterial activity against Escherichia coli assessed as bacterial growth inhibition; format: functional
[9] = tested on: Pseudomonas aeruginosa; experiment: Antibacterial activity against Pseudomonas aeruginosa assessed as bacterial growth inhibition; format: functional
[10] = Cytotoxicity against human HepG2 cells assessed as reduction in cell viability […] incubated for 48 hrs by MTT assay; format: toxicity, cell-based
[11] = Cytotoxicity against African green monkey Vero cells assessed as reduction in cell viability by coulter counter method; format: toxicity, cell-based; settings: chlorocebus sabaeus
[12] = Selectivity index, ratio of CC50 for african green monkey Vero cells to CC50 for human HepG2 cells; format: toxicity; settings: Vero cells and HepG2 cells, read-out: Selectivity Index
[13] = tested on: Escherichia coli; experiment: Antibacterial activity against Escherichia coli assessed as inhibition of LPS biosynthesis; format: functional
[14] = tested on: Mycobacterium tuberculosis; experiment: Antimycobacterial activity against Mycobacterium tuberculosis H37Rv; format: functional
[15] = tested on: Mycobacterium tuberculosis; experiment: Antimycobacterial activity against Mycobacterium tuberculosis H37Rv after 14 days; format: functional; settings: 336 h, time 14 day
[16] = target: T1, Enoyl-[acyl-carrier-protein] reductase [NADH] (Mycobacterium tuberculosis, UniProt P9WGR1); experiment: Inhibition of Mycobacterial tuberculosis ATCC 25618 FabI assessed as measuring NADH consumption rate
T1 sequence (P9WGR1 whole entry): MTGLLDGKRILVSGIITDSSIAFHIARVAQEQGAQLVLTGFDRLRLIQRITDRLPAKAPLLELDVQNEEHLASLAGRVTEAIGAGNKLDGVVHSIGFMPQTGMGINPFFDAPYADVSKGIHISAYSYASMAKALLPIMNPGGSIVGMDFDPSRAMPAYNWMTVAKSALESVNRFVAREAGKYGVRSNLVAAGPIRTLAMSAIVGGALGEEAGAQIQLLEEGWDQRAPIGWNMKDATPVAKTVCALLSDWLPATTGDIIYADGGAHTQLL

[17] = target: T2, Enoyl-[acyl-carrier-protein] reductase [NADPH] FabI (Staphylococcus aureus, UniProt Q6GI75); experiment: Inhibition of Staphylococcus aureus FabI assessed as inhibition of bacterial growth by measuring the NADH consumption rate at 20 mins
T2 sequence (Q6GI75 whole entry): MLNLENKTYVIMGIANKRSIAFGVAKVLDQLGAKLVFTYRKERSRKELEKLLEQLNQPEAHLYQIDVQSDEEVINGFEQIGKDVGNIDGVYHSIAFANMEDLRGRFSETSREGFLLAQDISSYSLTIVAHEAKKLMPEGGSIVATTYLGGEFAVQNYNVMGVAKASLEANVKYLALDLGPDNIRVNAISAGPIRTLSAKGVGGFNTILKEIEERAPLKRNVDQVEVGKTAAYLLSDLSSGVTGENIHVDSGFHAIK

[18] = tested on: Staphylococcus aureus; experiment: Antibacterial activity against methicillin-sensitive Staphylococcus aureus assessed as reduction in bacterial growth incubated for 12 hrs by microdilution method; format: functional
[19] = tested on: Staphylococcus epidermidis; experiment: Antibacterial activity against methicillin-sensitive Staphylococcus epidermidis assessed as reduction in bacterial growth incubated for 12 hrs by microdilution method; format: functional
[20] = tested on: Staphylococcus epidermidis; experiment: Antibacterial activity against methicillin-resistant Staphylococcus epidermidis assessed as reduction in bacterial growth incubated for 12 hrs by microdilution method; format: functional
[21] = tested on: Staphylococcus aureus; experiment: Antibacterial activity against Staphylococcus aureus ATCC 29213 assessed as bacterial growth inhibition incubated for 24 hrs by broth dilution method; format: functional
[22] = target: T2, Enoyl-[acyl-carrier-protein] reductase [NADPH] FabI; experiment: Inhibition of Staphylococcus aureus ATCC 29213 FabI in the presence of NADH using crotonyl CoA as substrate by measuring NADH consumption rate
[23] = tested on: Escherichia coli; experiment: Antibacterial activity against Escherichia coli BAA 2340 assessed as reduction in microbial growth inhibition; format: functional
[24] = tested on: Klebsiella pneumoniae; experiment: Antibacterial activity against Klebsiella pneumoniae BAA-1705; format: functional
[25] = tested on: Acinetobacter baumannii; experiment: Antibacterial activity against Acinetobacter baumannii W41979; format: functional
[26] = tested on: Staphylococcus aureus; experiment: Antibacterial activity against quinolone-resistant Staphylococcus aureus; format: functional
[27] = tested on: Staphylococcus aureus; experiment: Antibacterial activity against Staphylococcus aureus assessed as inhibition of bacterial growth measured after 24 hrs; format: functional
[28] = tested on: Escherichia coli; experiment: Antibacterial activity against Escherichia coli assessed as bacterial growth inhibition at 50 uM measured after 24 hrs by 96-wellplate reader assay method; format: functional
[29] = tested on: Plasmodium falciparum; experiment: Antimalarial activity against Plasmodium falciparum by LDH assay; format: functional, organism-based

Question: For `Cc1c(CN(C)C(=O)/C=C/c2cnc3c(c2)C2(CCC2)C(=O)N3)sc2ccccc12`, which MIC [1] is on record?
Answer: 0.015 µg/mL (≈ 0.0359 µM)

Question: And the MIC [2]?
Answer: 0.015 µg/mL (≈ 0.0359 µM)

Question: Which results are given for `C=C1C(=O)OC[C@H]1C(O)/C=C(\C)CC(=O)C=C(C)C` (stereo not given in full)?
Answer: IC50 [3]: 20 µg/mL; IC50 [4]: 20 µg/mL (≈ 75.7 µM); IC50 [5]: 75 µg/mL (≈ 284 µM)

Question: For `Cc1ccc(C2=NCC(c3ccc(Oc4ccccc4)c(O)c3)C2)cc1` (stereo not given), which MIC [6] is on record?
Answer: 18 µM (≈ 6.18 µg/mL)

Question: What about the MIC [7] of the same compound?
Answer: 9 µM (≈ 3.09 µg/mL)

Question: And the MIC [8]?
Answer: 18.2 µM (≈ 6.26 µg/mL)

Question: What about the MIC [9] of the same compound?
Answer: 18 µM (≈ 6.18 µg/mL)

Question: And the CC50 at 48 h [10]?
Answer: > 596 µM

Question: What about the CC50 [11] of the same compound?
Answer: > 646 µM

Question: What about the selectivity ratio [12] of the same compound?
Answer: > 10

Question: With `CCCS(=O)(=O)N1N=Cc2cc(C)sc2B1O` as the compound, how does the MIC [13] read?
Answer: 1.25 µg/mL (≈ 4.59 µM)

Question: With `COc1nc2ccc(Br)cc2cc1/C=N/NC(=O)c1ccc(-n2cccc2)cc1` as the compound, how does the MIC [14] read?
Answer: 1.6 µg/mL (≈ 3.56 µM)

Question: For `Oc1cc(Cn2cc(C3CC3)nn2)ccc1Oc1ccccc1Cl`, which MIC [15] is on record?
Answer: 0.156 µg/mL (≈ 0.456 µM)

Question: With `C=C1C(=O)OC[C@H]1C(/C=C(\C)CC(=O)C=C(C)C)OC(C)=O` (stereo not given in full) as the compound, how does the IC50 [4] read?
Answer: 25 µg/mL (≈ 81.6 µM)

Question: What about the IC50 [5] of the same compound?
Answer: 50 µg/mL (≈ 163 µM)

Question: With `COc1nc2ccc(C)cc2cc1/C=N/NC(=O)c1ccc(-n2cccc2)cc1` as the compound, how does the MIC [14] read?
Answer: 1.6 µg/mL (≈ 4.16 µM)

Question: For `C=C1C(=O)OC[C@H]1C/C=C(\C)CC(=O)C=C(C)C`, which IC50 [16] is on record?
Answer: 18.1 µM

Question: For `Cc1c(CN(C)C(=O)/C=C/c2cnc3c(c2)CCC(=O)N3)oc2ccccc12` [AFN-1252], which IC50 [17] is on record?
Answer: 0.014 µM

Question: What about the MIC90 [18] of the same compound?
Answer: ≤ 0.008 µg/mL

Question: And the MIC90 [19]?
Answer: 0.03 µg/mL (≈ 0.0799 µM)

Question: And the MIC90 [20]?
Answer: ≤ 0.008 µg/mL

Question: What about the MIC [21] of the same compound?
Answer: 0.008 µg/mL (≈ 0.0213 µM)

Question: And the IC50 [22]?
Answer: 9.6 µM

Question: What about the MIC [23] of the same compound?
Answer: > 32 µg/mL

Question: And the MIC [24]?
Answer: > 32 µg/mL

Question: And the MIC [25]?
Answer: > 32 µg/mL

Question: Which results are given for `CN1C(=O)[C@@H](c2cc(Cl)c(O)c(Cl)c2)NC(=O)[C@@H]2NC(=O)[C@@H](c3cc(Cl)c(O)c(Cl)c3)NC(=O)[C@H](NC(=O)C(=O)c3cc(Cl)c(O)c(Cl)c3)CC3C(=O)Nc4cc(ccc43)-c3cc2cc(c3O)Oc2ccc(cc2)C[C@H]1C(=O)N[C@@H](C(=O)O)c1ccc(O)cc1` (stereo not given in full) [COMPLESTATINS A]?
Answer: IC50 [22]: 0.6 µM; MIC [26]: 4 µg/mL (≈ 2.97 µM)

Question: Which results are given for `Oc1cc(Cl)ccc1Oc1ccc(Cl)cc1Cl` [TRICLOSAN]?
Answer: MIC [27]: 0.016 µg/mL (≈ 0.0553 µM); MIC [28]: 0.3 µg/mL (≈ 1.04 µM); MIC [15]: 12.5 µg/mL (≈ 43.2 µM); IC50 ([3]; read-out: IC50): 0.073 µM; EC50 [29]: 0.8 µg/mL (≈ 2.76 µM)
